Measurements from patent publication US20110212954A1, “ALPHA-LIPOIC ACID DERIVATIVES AND THEIR USE IN DRUG PREPARATION” (priority 2008, published 2011).

Columns and labels:
[1] = system: human hepatocarcinoma cells (HepG2 cells); test: Evaluation of cell viability (ATPlite luminometric assay) and cell proliferation; type: cell-based; conditions: 1 mM
Experimental: Dose-dependent concentration studies of the synthesized compounds were carried out and compared with the effects of alpha-lipoic acid, defined as reference standard, on human hepatocarcinoma cells (HepG2 cells) with the aim of evaluating their effects on cell viability.
Analysis by optical microscope enabled any morphological changes and accumulation of lipid vesicles to be determined as well as to evaluate cell proliferation or arrest.
A luminometric assay (ATPlite, Perkin Elmer), based on the production of light caused by a reaction with the intracellular ATP of viable cells, enabled the compounds to be classified on the basis of their viability index. In this respect, the signal detected by the luminometer is proportional to the number of viable cells. […]

[2] = system: HepG2 cells; test: Variation in NADH levels (total NADH/NAD ratio), spectrophotometric kit; type: cell-based, human; conditions: 72 hours
Excerpt: (§1) Although it is known that under hyperglycemic conditions α-LA induces AMPK activation in hepatic cells, the molecular mechanisms responsible for this biochemical process are not yet known. As envisaged in the description, the inventors of the present invention have advanced the hypothesis that AMPK activation by α-LA is the result of changes in the amount of NADH and NADHP present in cells, due to the interference of α-LA and/or its analogous derivatives in the oxidation-reduction processes. To verify this hypothesis, use was made of commercial kits (by Valter Occhiena) able to analyze the variations in the cellular amounts of NAD(P)H relative to total NAD(P), in the presence of increasing concentrations of the compounds under analysis (total NAD=NADH+NAD^+; total NADP=NADPH+NADP^+).

[3] = system: HepG2 cells; test: Variation in NADPH levels (total NADPH/NADP ratio), spectrophotometric kit; type: cell-based, human; conditions: HepG2 cells, 5, 10, 100 and 500 μM, 72 hours
Excerpt: as §1

[4] = system: protein pool extracted from murine liver; test: In vitro enzyme hydrolysis assay, thin-layer chromatography detection; type: in vitro ADME, mouse; conditions: 1 mg murine liver protein extract, 50 μg compound, 24 hours, 25° C.
Experimental: In view of what found from the results of Example 29, an in vitro enzyme hydrolysis assay was carried out with the aim of further clarifying which of the synthesized derivatives behaved as alpha-lipoic acid precursors, i.e. as prodrugs able to release alpha-lipoic acid by hydrolysis.
A protein pool extracted from murine liver, containing enzymes able to promote hydrolysis of the compounds of the invention, was used to reintroduce in vitro the hydrolytic activity previously described in the pharmacokinetic studies.
Methodology • The liver of a wild-type mouse was removed; excess blood was removed by washing in phosphate buffer saline (PBS); • Said liver was transferred into a homogenizer with a sufficient amount of lysis buffer (50 mM Tris HCl pH 7.5-8.0; 150 mM NaCl; 5 mM EGTA pH 7.5-8.0; 50 mM NaF pH 8.0; 10% (v/v) glycerol; 1.5 mM MgCl2, 1% Triton X-100) enriched with protease and phosphatase inhibitors (Protease Inhibitor Cocktail; Sigma-Aldrich). 15-20 impacts were applied by the pestle in order to obtain a homogeneous solution; • The entire mixture was left under agitation at +4° C. for 1 hour; after centrifugation at 14000 rpm, the supernatant containing the extracted proteins was recovered; • The amount of extracted protein was determined using the Bradford assay; • The enzymatic hydrolysis reaction was carried out: 1 mg of protein extract for hydrolysing 50 μg of synthesized compound (dissolved in DMSO); 1, 3 or 24 hours at 25° C. under agitation; • The digestion product(s) was/were detected using thin-layer chromatography: mobile phase (60:40:1 of ethyl acetate; n-hexane; acetic acid); silica plate (Sigma-Aldrich); phosphomolybdic reagent; • The digestion products were analyzed and compared with (R)-α-LA (Sigma-Aldrich), and with the non-hydrolysed compound of the invention.
It was, therefore, possible to detect (R)-alpha-lipoic acid as the hydrolysis product and to differentiate it from the enantiomers of the invention.

[5] = Pharmacokinetic study in rats after oral administration of a single dose, HPLC-MS of plasma; type: in vivo; conditions: rat, single dose 48.5 μmol/kg
Experimental: The bioavailability of some compounds synthesized (Examples 1a, 2, 2a, 3, 3a, 10, 15a, 16a and 24) was studied in rats after oral administration of a single dose (48.5 μmol/kg) and compared with the reference (R)- or (RS)-α-LA.
Each treatment was carried out on groups of 6 male rats (Sprague-Dawley SD rat) per compound. At regular times, blood withdrawals were carried out for the measurement by HPLC-MS of the concentration of plasmatic α-LA (FIGS. 5, 7, 9) and of the residual compound administered (FIGS. 6, 8).

[6] = in man, cited from earlier work
[7] = system: diabetic rats; conditions: diabetes type II models, high doses of α-LA (30 mg/kg in rats); cited from earlier work

For `O=C(O)CCCC[C@@H]1CCSS1` [(R)-α-LA, (R)-alpha-lipoic acid, reference compound], the “confluence reached by HepG2 cells (arrest of cell proliferation)” value [1] was 60-70%, the “amount of NADH at high concentrations (FIG. 10)” value ([2]; 100 and 500 μm) was “decrease in NADH levels” and the “effect on NADPH levels (FIG. 11)” value [3] was “influenced NADPH levels, in a dose dependent manner”.

`CC(=O)NCCNC(=O)CCCCC1CCSS1` (racemic) [Example 10a, 5-[1,2]dithiolan-3-yl-pentanoic acid(2-acetylamino-ethyl)-amide] gave a melting point of 144.6 to 145.8 °C.

With `CC(C)NC(=O)CCCC[C@@H]1CCSS1` [Example 8, (R)-5-[1,2]dithiolan-3-yl-pentanoic acid isopropylamide] the “amount of (R)-alpha-lipoic acid released after 24 h (FIG. 3)” value [4] was “reduced release”, the “enzymatic hydrolysis after 24 h (FIG. 3)” value [4] was “partial hydrolization” and the “effect on NADPH levels (FIG. 11)” value [3] was “influenced NADPH levels, in a dose dependent manner”.

In the case of `O=C(CCCCC1CCSS1)NCCCN1CCOCC1` (racemic) [Example 3a, 5-[1,2]dithiolan-3-yl-pentanoic acid(3-morpholin-4-yl-propyl)-amide], the “released alpha-lipoic acid and compound itself in plasma, any withdrawal time” value [5] is reported as “neither released alpha-lipoic acid nor the compound itself was detected”, the “NADH levels relative to control at 5 μM (FIG. 10)” value ([2]; 5 μM) is reported as “lower NADH levels than the control” and the “effect on NADPH levels (FIG. 11)” value [3] is reported as “influenced NADPH levels, in a dose dependent manner”.

In the case of `O=C(O)CCCC[C@@H]1CCSS1` (racemic) [α-LA, 1,2-dithiolane-3-pentanoic acid], the “bioavailability after oral administration” value ([6]; oral) is given as “less than 30%”, the “plasma half life (t1/2)” value [6] is given as 28 min and the “glycemia in diabetic rats” value [7] is given as “reduces glycemia”.

In the case of `CC(=O)NCCNC(=O)CCCC[C@@H]1CCSS1` [Example 10, (R)-5-[1,2]dithiolan-3-yl-pentanoic acid(2-acetylamino-ethyl)-amide], the melting point is reported as 144.6 to 145.8 °C.
